The results in this text go back to ChEMBL document CHEMBL1126380, “New aza(nor)adamantanes are agonists at the newly identified serotonin 5-HT4 receptor and antagonists at the 5-HT3 receptor” (Bioorg Med Chem Lett, 1992).

Experiment [1] concerns the target T1, 5-hydroxytryptamine receptor 3A (Rattus norvegicus, UniProt P35563).
T1 sequence (P35563 whole entry): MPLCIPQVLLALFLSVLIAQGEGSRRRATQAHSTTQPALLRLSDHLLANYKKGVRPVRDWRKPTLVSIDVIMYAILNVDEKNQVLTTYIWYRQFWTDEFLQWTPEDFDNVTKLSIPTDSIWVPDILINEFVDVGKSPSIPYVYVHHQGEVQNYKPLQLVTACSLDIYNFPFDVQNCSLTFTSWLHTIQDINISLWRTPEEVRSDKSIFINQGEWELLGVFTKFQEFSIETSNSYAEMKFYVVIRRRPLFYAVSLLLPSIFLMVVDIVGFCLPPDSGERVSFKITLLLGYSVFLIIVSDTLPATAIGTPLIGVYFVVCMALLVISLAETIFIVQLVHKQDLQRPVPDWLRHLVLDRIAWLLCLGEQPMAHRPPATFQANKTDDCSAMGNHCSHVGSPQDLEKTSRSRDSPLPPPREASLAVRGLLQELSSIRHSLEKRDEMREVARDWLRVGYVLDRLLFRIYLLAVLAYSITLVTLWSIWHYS
Description: Compound was evaluated […] for the antagonistic activity towards 5-hydroxytryptamine 3 receptor. The experiment is classed as functional.

The target in experiment [2] is 5-hydroxytryptamine receptor 4 (Rattus norvegicus, UniProt Q62758). Description: Compound was evaluated for the agonistic activity towards 5-hydroxytryptamine 4 receptor using the rat tunica muscularis mucosae (TMM) esophagus strip assay. Format: functional, tissue-based, Muscularis mucosa.
Experiment [3] relates to Rattus norvegicus. As to the kind of experiment: Minimum effective dose(ip) required for inhibition of serotonin-induced bradycardic response in the Bezold-Jarisch reflex functional model. Particulars: for minimal effective dose: Rattus norvegicus, ip, read-out: MED.

One may read the Ki as the dissociation constant of the complex between target and ligand, obtained from inhibition or displacement. One may read the EC50 as the midpoint of the concentration-response curve. A higher EC50 goes with a less potent agent.

Molecules are shown by their SMILES.

Sequence of 5-hydroxytryptamine receptor 4 (Q62758 whole entry): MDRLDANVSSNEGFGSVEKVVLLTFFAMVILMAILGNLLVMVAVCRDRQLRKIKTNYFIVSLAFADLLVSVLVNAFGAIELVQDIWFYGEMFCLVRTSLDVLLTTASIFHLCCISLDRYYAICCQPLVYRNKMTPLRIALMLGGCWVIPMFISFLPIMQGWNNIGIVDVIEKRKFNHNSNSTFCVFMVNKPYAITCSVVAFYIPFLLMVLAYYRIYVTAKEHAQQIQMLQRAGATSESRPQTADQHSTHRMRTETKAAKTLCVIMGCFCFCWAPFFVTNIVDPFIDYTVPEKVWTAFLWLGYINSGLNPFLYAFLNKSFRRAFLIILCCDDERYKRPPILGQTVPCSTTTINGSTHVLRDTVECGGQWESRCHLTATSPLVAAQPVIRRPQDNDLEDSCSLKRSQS

`COc1cc(N)c(Cl)cc1C(=O)N[C@H]1C2CC3CN(C2)CC31` (some centres undefined): the Ki in experiment [1] came to 3.9 nM. Also, the concentration for a half-maximal effect (EC50) in experiment [2] was found to be 3870 nM. Also, the minimal effective dose in experiment [3] is 0.01 mg/kg.

In experiment [1], `COc1cc(N)c(Cl)cc1C(=O)N[C@@H]1C2CC3CN(C2)CC31` (some centres undefined) displayed a Ki of 1.2 nM. Moreover, the midpoint of the response in experiment [2], the EC50, lay at 51.3 nM. Besides, in experiment [3], the minimal effective dose was 0.01 mg/kg.

The molecule `COc1cc(N)c(Cl)cc1C(=O)N[C@@H]1CN2CCC1CC2` gave a Ki in experiment [1] of 0.23 nM. The response in experiment [2] was half-maximal at 203 nM (EC50). Besides, in experiment [3], the minimal effective dose amounted to 0.3 mg/kg.

In experiment [1], `COc1cc(N)c(Cl)cc1C(=O)NC1C2CC3CC1CN(C3)C2` (stereo in doubt) yielded a Ki of 9 nM. Besides, the EC50 in experiment [2] turned out to be 262 nM. Further, the MED in experiment [3] stood at 0.03 mg/kg.

Turning to `COc1cc(N)c(Cl)cc1C(=O)NC1C2CC3CC1CN(C3)C2` (stereo in doubt; 1A), the Ki in experiment [1] was 336 nM. The same molecule returned an EC50 in experiment [2] of 538 nM. In experiment [3], this molecule gave an MED of 10 mg/kg.

In the case of `COc1cc(N)c(Cl)cc1C(=O)N[C@@H]1CCN(CCCOc2ccc(F)cc2)C[C@@H]1OC` [CISAPRIDE], in experiment [3], the minimal effective dose was 5 mg/kg.

In experiment [1], `COc1cc(N)c(Cl)cc1C(=O)NC1CCN2CCCC1C2` (centres undefined) [RENZAPRIDE] returned a Ki of 5.6 nM. This molecule also had an EC50 in experiment [2] of 98 nM. The minimal effective dose in experiment [3] was found to be 0.25 mg/kg.
